Laboratory results reported in patent publication US4264736A, “Antibiotic 890A10” (Merck & Co., Inc., priority 1979, dated 1981).
Counter-ions that a name gives are not always drawn.

Legend:
[1] = Hydroxylamine reaction (A300 decrease); type: physicochemical
Excerpt: The disodium salt of antibiotic 890A10 has an absorption maximum at 299 nm and a minimum at 243 nm at neutral pH in water. The E% at 300 nm of the most highly purified preparation of disodium salt is 214. The ratio A300 /A250 is 3.33 for the most purified sample, and the ratio A300 /A220 is 2.05. […] More than 94% of the absorption at 300 nm can be extinguished by reaction with hydroxylamine at neutral pH. The absorbance at 250 nm also decreases upon reaction with hydroxylamine, and the ratio of the absorbance decrease at 250 nm to the decrease at 300 nm, is approximately 0.16. […]
Antibiotic 890A10 reacts with hydroxylamine and produces a substance with greatly diminished absorbance at 300 nm. This provides the basis for a quantitative assay of the antibiotic 890A10.
The solution to be assayed is brought to 0.05 M in potassium phosphate, pH 7.4 by adding 1/20th volume of a solution containing 0.8 M K2 HPO4 and 0.2 M KH2 PO4 . Then one-hundredth volume of 1 M hydroxylamine hydrochloride is added, and the absorbance at 300 nm is measured at intervals of one-half to two minutes. […] First-order kinetics are assumed and a half-life is estimated from the absorbance decrease during the first ten minutes. From this half-life, the time is estimated beyond which no further absorbance decrease should be observed and observations are continued beyond that time. […]

[2] = test system: Vibrio percolans ATCC 8461; experiment: 890 Assay Units, agar plate disc-diffusion, cephaloridine standard; type: cell-based
Experimental: II. Assay Procedure for Determining "890 Assay Units"
A conventional agar plate disc-diffusion method is employed using Vibrio percolans ATCC 8461 as tester organism. Cephaloridine is employed as a standard. Plates containing Vibrio percolans ATCC 8461 are prepared as follows. A culture of Vibrio percolans ATCC 8461 is incubated in nutrient broth-yeast extract overnight on a rotary shaker at 28° C. and then diluted to a density of 60% transmittance at 660 nm. A 33.2 ml. portion of this diluted culture is added to 1 liter of a medium composed of nutrient agar plus 0.2% yeast extract maintained at 46° C. The inoculated agar-containing medium is poured into 100×15 mn. plastic-petri dishes, 10 ml. per dish, chilled, and maintained at 2°-4° C. for up to 5 days before use.
The concentration of cephaloridine which is equivalent to 1 unit/ml. of 890A1 is determined by assay on plates prepared as above, but containing 5 ml. of inoculated medium per plate, as follows. Four concentrations of cephaloridine constitute the standard--3.12, 6.25, 12.5 and 25 mcg per ml. with the 12.5 mcg per ml. as a reference solution. The zone diameters on a 5 ml. plate for the standard are as follows:
A unit is defined as the amount of antibiotic per ml. producing a 25 mm. zone of inhibition on a 5 ml. plate as described in section I above. Therefore, in this assay a concentration of 12.5 mcg per ml. of cephaloridine is considered equivalent to 1 unit of 890A1 per ml. Since the slope of the line for cephaloridine is 4.0 calculations of the potency of a sample are made using a slope of 4.0

Structure (SMILES) | absorption at 300 nm extinguished by reaction with hydroxylamine ([1]; neutral pH) | half-life of reaction with hydroxylamine ([1]; room temperature, apparently first order, A300 decrease, pH 7.4) | concentration equivalent to 1 unit of 890A1 per ml ([2]; 25 mm zone of inhibition on a 5 ml plate) | zone of inhibition at 3.12 µg/mL ([2]; Comamonas terrigena, ATCC8461, 3.12 mcg/ml, 5 ml plate, read-out: Zone Diameter) | zone of inhibition at 6.25 µg/mL ([2]; Comamonas terrigena, ATCC8461, 6.25 mcg/ml, 5 ml plate, read-out: Zone Diameter) | zone of inhibition at 12.5 µg/mL ([2]; Comamonas terrigena, ATCC8461, 12.5 mcg/ml (reference solution), 5 ml plate, read-out: Zone Diameter) | zone of inhibition at 25 µg/mL ([2]; Comamonas terrigena, ATCC8461, 25 mcg/ml, 5 ml plate, read-out: Zone Diameter)
CC(=O)NCCSC1=C(C(=O)O)N2C(=O)C(C(C)OS(=O)(=O)O)C2C1 (stereo not shown) [disodium salt of antibiotic 890A10] | More than 94% | 23 to 60 s |  |  |  |  | 
O=C(Cc1cccs1)N[C@@H]1C(=O)N2C(C(=O)[O-])=C(C[n+]3ccccc3)CS[C@H]12 [cephaloridine] |  |  | 12.5 mcg per ml | 16.8 mm | 22.3 mm | 25 mm | 29.6 mm
